The text below walks through data of patent US8840927B2, “Method of making anti-microbial polymeric surfaces” (Covalon Technologies Inc., priority 2001, dated 2014).

Values after ≈ are worked out from the molar mass of the structure shown.

A short description of this series: Aqueous solubility of photo-initiator. In kind it is physicochemical. As to the method:
Pre-weighed silicone disks (approximately 0.7 cm in diameter, 0.2 cm in thickness) or cylindrical sections (approximately 0.5 cm in diameter, 1 cm in length) were incubated in a methanol solution of photo-initiator (BPB; or p-benzoyl benzoic acid, BBA) for 1 hour followed by air drying at about 40° C. for 2 hours. Samples were then suspended in vials containing 3 mL of aqueous monomer solution. When required, monomer solutions were saturated with BPB. The aqueous solubility of BPB was 4 μg/mL. All solutions were filtered through 0.22 μm pore filters prior to being flushed with nitrogen for 15 min. Vials were sealed with rubber septa and placed 2.5 cm beneath a pair of UVA bulbs (15 W ea.). Radiation intensity at the sample site was 3.8 mW/cm2 as determined by UV actinometry (16). After completion of the graft polymerization reaction, samples were briefly washed under running water with occasional scrubbing to remove any signs of adsorbed homopolymer. The remaining non-grafted material was removed by overnight incubation in 50% ethanol followed by a 4 hour incubation in water. Samples were dried in a 60° C. oven for 16 hours before their weights were determined using a microbalance. Quadruplicate samples of each treatment were analysed in all experiments.

For orientation: aqueous solubility means how much of the substance goes into solution per volume. High values mean much dissolved substance, low ones little dissolved substance.

`CC(C)(C)OOC(=O)c1ccc(C(=O)c2ccccc2)cc1` [BPB, p-benzoyl tert-butylperbenzoate] returned an aqueous solubility of 4 µg/mL (≈ 13.4 µM).
